The values that follow come from patent US7247317B2, “Compositions comprising phenylaminothiophenacetic acid derivatives for the treatment of acute or adult respiratory distress syndrome (ARDS) and infant respiratory distress syndrome (IRDS)” (Altana Pharma AG, priority 1998, dated 2007).

The assay concerns Sprague Dawley rats. The assay is described as follows: Lung lavage model of ARDS in ventilated rats: arterial oxygen partial pressure (PaO2). In kind it is in vivo, rat. Particulars: for PaO2: 120 min, mean ± SD. An excerpt:
Anesthetized Sprague Dawley rats are artificially ventilated with pure oxygen and a positive endexiratory pressure (PEEP; in order to ensure oxygenation of the rats) and lavaged until their endogenous lung surfactant is washed out [D. Häfner, R. Beume, U. Kilian, G. Kraznai and Burkhard Lachmann: Dose-response comparison of five lung surfactant (LSF) preparations in an animal model of adult respiratory distress syndrome (ARDS); D. Häfner, P.-G. Germann, D. Hauschke, Pulmonary Pharmacology (1994) 7, 319-332]. This is manifested by the fact that in the animals the preliminary values of the arterial oxygen partial pressure (PaO2) of 500-550 mmHg (in the case of pure oxygen ventilation and PEEP) decrease to values of 50-110 mmHg. Animals of the control group which are not treated with lung surfactant remain with their PaO2 at these low values throughout the observation period. 60 minutes after the PaO2 has decreased to these values, lung surfactant or lung surfactant together with 4-(2,6-dichloroanilino)-3-thiopheneacetic acid is instilled intratracheally. The blood gases are determined 30, 60, 90 and 120 minutes after instillation.
In Table 1 below, in line A the average values (± standard deviation) of the PaO2 are indicated in mmHg for the time 120 minutes (constant PEEP of 8 cm H2O) after intratracheal instillation of lung surfactant 1 h after the last lavage. The table contains data about the values after a sole i.v. administration of 4-(2,6-dichloroanilino)-3-thiopheneacetic acid (Eltenac) in comparison to untreated controls. It can be seen from the table that the sole administration of Eltenac has no influence on the PaO2. This follows by comparison with the untreated control animals. The administration of lung surfactant (25 or 100 mg/kg) leads to a rise in the PaO2. […] In Table 2, in line A the PaO2 values after joint intratracheal (i.tr.) administration of lung surfactant together with Eltenac are indicated in increasing dosages. […]

On to `O=C(O)Cc1cscc1Nc1c(Cl)cccc1Cl` [Eltenac, 4-(2,6-dichloroanilino)-3-thiopheneacetic acid], for which the PaO2 is 92 ± 69 mmHg (Eltenac i.tr. 3.0 mg/kg alone after last lavage) and 82 ± 35 mmHg (Eltenac i.v. 22.1 mg/kg alone, directly after lavage, PEEP 8 cm H2O). Besides, the “influence on the PaO2 (in words)” value (sole administration of Eltenac vs untreated control animals) is “no influence”.
